Assay results as given in ChEMBL document CHEMBL1201862, “PubChem BioAssay data set” (2004).
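Results reflect a 48-hour exposure of cells in 96-well plates to compound at five concentrations. Here, GI50 denotes the concentration required for 50% inhibition of growth.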 Calls of active or inactive are those of the source. Cut-off read from the data, not from the text of the source: active = GI50 up to about 1.1 µM and inactive = higher.

Key:
Experiment in all cases: growth of human tumour cells (NCI), 48 h
NCI-H460 = system: NCI-H460
RXF 393 = system: RXF 393
HCT-116 = system: HCT-116
DMS-114 = system: DMS-114
HCC 2998 = system: HCC 2998
SR = system: SR
IGROV-1 = system: IGROV-1
UACC-62 = system: UACC-62
KM-20L2 = system: KM-20L2
MCF7 = system: MCF7
M19-MEL = system: M19-MEL
UO-31 = system: UO-31
786-0 = system: 786-0

| SMILES | GI50 (NCI-H460) | GI50 (RXF 393) | GI50 (HCT-116) | GI50 (DMS-114) | GI50 (HCC 2998) | GI50 (SR) | GI50 (IGROV-1) | GI50 (UACC-62) | GI50 (KM-20L2) | GI50 (MCF7) | GI50 (M19-MEL) | GI50 (UO-31) | GI50 (786-0) |
| --- | --- | --- | --- | --- | --- | --- | --- | --- | --- | --- | --- | --- | --- |
| COc1ccc(C2N(NC(=O)c3ccncc3)C(=O)CS2(=O)=O)cc1F (stereo not drawn) | > 100 µM (inactive) | > 100 µM (inactive) | > 100 µM (inactive) | > 100 µM (inactive) | > 100 µM (inactive) | > 100 µM (inactive) | – | – | – | – | – | – | – |
| NC1CCCCC1 | 216 µM (inactive) | 347 µM (inactive) | 193 µM (inactive) | > 56.2 µM (inactive) | 310 µM (inactive) | – | 317 µM (inactive) | 255 µM (inactive) | 192 µM (inactive) | 199 µM (inactive) | 187 µM (inactive) | – | – |
| Cc1ccc(CCC(=O)C(=O)O)s1 | > 100 µM (inactive) | – | 41 µM (inactive) | > 100 µM (inactive) | > 100 µM (inactive) | > 100 µM (inactive) | > 100 µM (inactive) | 19.4 µM (inactive) | > 100 µM (inactive) | – | > 100 µM (inactive) | > 100 µM (inactive) | – |
| CC(C)OP(=O)(OC(C)C)c1nn(-c2ccc([N+](=O)[O-])cc2)c(=N)s1 | > 100 µM (inactive) | – | > 100 µM (inactive) | 56.9 µM (inactive) | 65.5 µM (inactive) | – | > 100 µM (inactive) | > 100 µM (inactive) | > 100 µM (inactive) | – | > 100 µM (inactive) | 60.4 µM (inactive) | – |
| CC1[C@@H]2CC=C3C4CCC5Cc6nc7c(nc6C[C@@]5(C)C4CC(=O)[C@]32CO[C@@]1(O)C(O)CC(C)(C)O)CC1CCC2C3=C[C@H]4O[C@@]5(O[C@@](C)(CO)C[C@@H]5O)C(C)[C@@]4(O)[C@]3(C)[C@@H](O)CC2[C@]1(C)C7 (stereo partly drawn) | 0.00151 µM (active) | < 0.00036 µM (active) | 0.023 µM (active) | 0.000513 µM (active) | 0.0243 µM (active) | – | 0.0101 µM (active) | 0.00381 µM (active) | 0.0069 µM (active) | 0.0109 µM (active) | 0.237 µM (active) | 0.0259 µM (active) | – |
| C=CCNC(=O)N(CCC)CCCCC(NC(C)=O)C(=O)NCc1ccccc1 (stereo not drawn) | > 100 µM (inactive) | > 100 µM (inactive) | – | > 100 µM (inactive) | > 100 µM (inactive) | – | > 100 µM (inactive) | > 100 µM (inactive) | > 100 µM (inactive) | – | > 100 µM (inactive) | > 100 µM (inactive) | > 100 µM (inactive) |
| O=C1CCC(c2ccccc2)=NN1c1nsc2ccccc12 | 47.9 µM (inactive) | > 100 µM (inactive) | 99.3 µM (inactive) | 62.7 µM (inactive) | 60.8 µM (inactive) | 58.9 µM (inactive) | 97.9 µM (inactive) | > 100 µM (inactive) | > 100 µM (inactive) | – | > 100 µM (inactive) | > 100 µM (inactive) | – |
| CC(=O)[C@H]1CCC2[C@@H]3CC=C4C(O)C(OS(=O)(=O)O)CC[C@]4(C)C3CC[C@@]21C (stereo partly drawn) | > 100 µM (inactive) | > 100 µM (inactive) | > 100 µM (inactive) | > 100 µM (inactive) | > 100 µM (inactive) | – | > 100 µM (inactive) | > 100 µM (inactive) | > 100 µM (inactive) | > 100 µM (inactive) | > 100 µM (inactive) | > 100 µM (inactive) | – |
